Results: patent publication US10538555B2, “Macrocyclic inhibitors of the PD-1/PD-L1 and CD80(B7-1)/PD-L1 protein/protein interactions” (BRISTOL-MYERS SQUIBB COMPANY, priority 2014, dated 2020)
*1 amine or outer side, *2 acyl side, *3 side chain or, on linkers, in order; H or OH if unused. Where a SMILES comes first, the peptide text is derived from it. Bridges are numbered along the chain shown (N, C = ends). [ ]: non-standard residue; d: D form. ξ: configuration not given here. Trp(1-CH2COOH) = N[C@@H](Cc1cn(CC(=O)O)c2ccccc12)C(=O)O; Phe(3,4,5-F3) = N[C@@H](Cc1cc(F)c(F)c(F)c1)C(=O)O; Phe(3,4-F2) = N[C@@H](Cc1ccc(F)c(F)c1)C(=O)O; Morpholine(3S-CO) = O=C(O)[C@@H]1COCCN1; Phe(4-F) = N[C@@H](Cc1ccc(F)cc1)C(=O)O; d(cisHyp) = O=C(O)[C@H]1C[C@@H](O)CN1; Bta = N[C@@H](Cc1csc2ccccc12)C(=O)O; NMeY = CN[C@@H](Cc1ccc(O)cc1)C(=O)O; NMeIle(3ξ) = CCC(C)[C@H](NC)C(=O)O; Hyp = O=C(O)[C@@H]1C[C@@H](O)CN1; NMeF = CN[C@@H](Cc1ccccc1)C(=O)O; X1 = O=C([C@H]1COCCN1[*:1])[*:2]; NMeE = CN[C@@H](CCC(=O)O)C(=O)O; dHyp = O=C(O)[C@H]1C[C@H](O)CN1; NMeNle = CCCC[C@H](NC)C(=O)O; Tle = CC(C)(C)[C@H](N)C(=O)O; hSer = N[C@@H](CCO)C(=O)O; NMeA = CN[C@@H](C)C(=O)O; Orn = NCCC[C@H](N)C(=O)O; dThz = O=C(O)[C@H]1CSCN1; Dab = NCC[C@H](N)C(=O)O; Dap = NC[C@H](N)C(=O)O; ξC = NC(CS)C(=O)O; Sar = CNCC(=O)O

These compounds were tested against T1, Human PD-L1/PD-1 (Homo sapiens, UniProt Q9NZQ7) (assay: HTRF Human PD-L1/PD-1 binding assay (PD-1-Ig/PD-L1-His)). Conditions: PD-L1-His 10 nM, PD-1-Ig 20 nM; class symbol; read-out: HTRF Human PD-L1/PD-1 Binding Assay IC50 Range.
T1 construct: TVMV protease cleavage site (C); made in house; host or cells: HEK293T cells
Method in brief: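 Competition of macrocyclic peptides for PD-1/PD-L1 binding measured by HTRF in dPBS containing 0.1% BSA and 0.05% Tween-20. Compound and PD-L1-His (10 nM final) incubated 15 min before PD-1-Ig (20 nM final) and a further 15 min.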

T1 sequence (Q9NZQ7 with tags, fused parts or gaps): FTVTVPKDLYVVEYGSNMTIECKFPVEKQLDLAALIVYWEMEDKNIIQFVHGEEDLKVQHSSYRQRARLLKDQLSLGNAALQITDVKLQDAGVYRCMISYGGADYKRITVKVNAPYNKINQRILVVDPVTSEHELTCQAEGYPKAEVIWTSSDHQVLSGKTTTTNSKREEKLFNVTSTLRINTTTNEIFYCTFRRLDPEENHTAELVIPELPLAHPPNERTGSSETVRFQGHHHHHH

IC50 [nM]	Compound
1 to 9.9	CCCC[C@H]1C(=O)N(C)[C@@H](CCCC)C(=O)N[C@@H](CCC(=O)O)C(=O)N[C@H](C(=O)NCC(N)=O)CSCC(=O)N[C@@H](Cc2ccc(O)cc2)C(=O)N2CCOC[C@H]2C(=O)N[C@@H](CC(=O)O)C(=O)N2CCC[C@H]2C(=O)N[C@@H](Cc2c[nH]cn2)C(=O)N[C@@H](CCC(N)=O)C(=O)N2C[C@H](O)C[C@H]2C(=O)N[C@@H](Cc2c[nH]c3ccccc23)C(=O)N[C@@H](CO)C(=O)N[C@@H](Cc2c[nH]c3ccccc23)C(=O)N1C [Example 1515] ({CH2CO}-Y[Morpholine(3S-CO)]DPHQ[Hyp]WSW[NMeNle][NMeNle]ECG-NH2; thioether N-14)
1 to 9.9	CCCC[C@H]1C(=O)N(C)[C@@H](CCCC)C(=O)N[C@@H](CC(C)C)C(=O)N[C@H](C(=O)NCC(N)=O)CSCC(=O)N[C@@H](Cc2ccc(OC)cc2)C(=O)N(C)[C@@H](C)C(=O)N[C@@H](CC(N)=O)C(=O)N2CCC[C@@H]2C(=O)N[C@@H](CN)C(=O)N[C@@H](C(C)C)C(=O)N2C[C@@H](O)C[C@@H]2C(=O)N[C@@H](Cc2c[nH]c3ccccc23)C(=O)N[C@@H](CCN)C(=O)N[C@@H](Cc2cn(CC(=O)O)c3ccccc23)C(=O)N1C [Example 7151] ({CH2CO}-Y(Me)[NMeA]N[dP][Dap]V[dHyp]W[Dab][Trp(1-CH2COOH)][NMeNle][NMeNle]LCG-NH2; thioether N-14)
10 to 99.9	CCCC[C@H]1C(=O)N(C)[C@@H](CCCC)C(=O)N[C@@H](CCCNC(=N)N)C(=O)NC(C(=O)NCC(N)=O)CSCC(=O)N[C@@H](Cc2ccc(O)cc2)C(=O)N(C)[C@@H](C)C(=O)N[C@@H](CC(N)=O)C(=O)N2CCC[C@H]2C(=O)N[C@@H](CCO)C(=O)N[C@@H](CO)C(=O)N2CCC[C@H]2C(=O)N[C@@H](Cc2c[nH]c3ccccc23)C(=O)N[C@@H](CO)C(=O)N[C@@H](Cc2c[nH]c3ccccc23)C(=O)N1C (stereo partly drawn) [Example 10024] ({CH2CO}-Y[NMeA]NP[hSer]SPWSW[NMeNle][NMeNle]R[ξC]G-NH2; thioether N-14)
10 to 99.9	CCCC[C@H]1C(=O)N(C)CC(=O)N[C@@H](CC(=O)O)C(=O)N[C@@H](C(C)(C)C)C(=O)N(C)[C@@H](Cc2ccccc2)C(=O)N[C@@H](Cc2ccc(O)cc2)C(=O)N(C)CC(=O)N[C@@H](Cc2c[nH]c3ccccc23)C(=O)N[C@@H](Cc2ccc(O)cc2)C(=O)N[C@@H](CC(C)C)C(=O)N[C@H](C(=O)NCC(N)=O)CSCC(=O)N[C@@H](Cc2ccccc2)C(=O)N(C)[C@@H](Cc2ccccc2)C(=O)N1C [Example 3211] ({CH2CO}-F[NMeF][NMeNle][Sar]D[Tle][NMeF]Y[Sar]WYLCG-NH2; thioether N-13)
1000 to 10000	CCCC[C@H]1C(=O)N2CCC[C@@H]2C(=O)N[C@@H](CC(=O)O)C(=O)N[C@@H](C(C)C)C(=O)N(C)[C@@H](C(C)CC)C(=O)N[C@@H](CCC(N)=O)C(=O)N2CCC[C@@H]2C(=O)N[C@@H](Cc2c[nH]c3ccccc23)C(=O)N[C@@H](Cc2ccc(O)cc2)C(=O)N[C@@H](CC(C)C)C(=O)N[C@H](C(=O)NCC(N)=O)CSCC(=O)N[C@@H](Cc2ccc(F)cc2)C(=O)N(C)[C@@H](Cc2ccccc2)C(=O)N1C (stereo partly drawn) [Example 9260] ({CH2CO}-[Phe(4-F)][NMeF][NMeNle][dP]DV[NMeIle(3ξ)]Q[dP]WYLCG-NH2; thioether N-13)
1 to 9.9	CCCC[C@H]1C(=O)N(C)[C@@H](CCCC)C(=O)N[C@@H](CO)C(=O)NC(C(=O)NCC(N)=O)CSCC(=O)N[C@@H](Cc2ccc(O)cc2)C(=O)N(C)[C@@H](C)C(=O)N[C@@H](CC(N)=O)C(=O)N2CCC[C@H]2C(=O)N[C@@H](CC(N)=O)C(=O)N[C@@H](CC(C)C)C(=O)N2C[C@H](O)C[C@H]2C(=O)N[C@@H](Cc2c[nH]c3ccccc23)C(=O)N[C@@H](CO)C(=O)N[C@@H](Cc2c[nH]c3ccccc23)C(=O)N1C (stereo partly drawn) [Example 9142] ({CH2CO}-Y[NMeA]NPNL[Hyp]WSW[NMeNle][NMeNle]S[ξC]G-NH2; thioether N-14)
10 to 99.9	CCCC[C@H]1C(=O)N[C@@H](CN)C(=O)N[C@H](C(=O)NCC(N)=O)CSCC(=O)N[C@@H](Cc2ccc(O)cc2)C(=O)N(C)[C@@H](C)C(=O)N[C@@H](CC(N)=O)C(=O)N2CCC[C@H]2C(=O)N[C@@H](Cc2c[nH]cn2)C(=O)N[C@@H](CCC(=O)O)C(=O)N2C[C@H](O)C[C@H]2C(=O)N[C@@H](Cc2c[nH]c3ccccc23)C(=O)N[C@@H](CCN)C(=O)N[C@@H](Cc2c[nH]c3ccccc23)C(=O)N(C)[C@@H](CCC(=O)O)C(=O)N1C [Example 5152] ({CH2CO}-Y[NMeA]NPHE[Hyp]W[Dab]W[NMeE][NMeNle][Dap]CG-NH2; thioether N-14)
1 to 9.9	CCCC[C@H]1C(=O)N2C[C@H](O)C[C@@H]2C(=O)N[C@@H](CC(=O)O)C(=O)N[C@@H](C(C)C)C(=O)N(C)[C@@H](Cc2ccccc2)C(=O)N[C@@H](CCC(=O)O)C(=O)N2CSC[C@@H]2C(=O)N[C@@H](Cc2c[nH]c3ccccc23)C(=O)N[C@@H](Cc2ccc(O)cc2)C(=O)N[C@@H](CC(C)C)C(=O)N[C@H](C(=O)NCC(N)=O)CSCC(=O)N[C@@H](Cc2cc(F)c(F)c(F)c2)C(=O)N(C)[C@@H](Cc2ccccc2)C(=O)N1C [Example 10148] ({CH2CO}-[Phe(3,4,5-F3)][NMeF][NMeNle][d(cisHyp)]DV[NMeF]E[dThz]WYLCG-NH2; thioether N-13)
1 to 9.9	CCCC[C@H]1C(=O)N2C[C@H](O)C[C@@H]2C(=O)N[C@@H](CC(=O)O)C(=O)N[C@@H](C(C)C)C(=O)N(C)[C@@H](Cc2ccccc2)C(=O)N[C@@H](CCCCN)C(=O)N2C[C@H](O)C[C@@H]2C(=O)N[C@@H](Cc2c[nH]c3ccccc23)C(=O)N[C@@H](Cc2ccc(O)cc2)C(=O)N[C@@H](CCCN)C(=O)N[C@H](C(=O)NCC(N)=O)CSCC(=O)N[C@@H](Cc2ccc(F)c(F)c2)C(=O)N(C)[C@@H](Cc2ccccc2)C(=O)N1C [Example 9306] ({CH2CO}-[Phe(3,4-F2)][NMeF][NMeNle][d(cisHyp)]DV[NMeF]K[d(cisHyp)]WY[Orn]CG-NH2; thioether N-13)
10 to 99.9	CCCC[C@H]1C(=O)N(C)[C@@H](CCCC)C(=O)N[C@@H](CCCNC(=N)N)C(=O)NC(C(=O)NCC(N)=O)CSCC(=O)N[C@@H](Cc2ccc(O)cc2)C(=O)N(C)[C@@H](C)C(=O)N[C@@H](CC(N)=O)C(=O)N2CCC[C@H]2C(=O)N[C@@H](CCO)C(=O)N[C@@H](CO)C(=O)N2C[C@H](O)C[C@H]2C(=O)N[C@@H](Cc2c[nH]c3ccccc23)C(=O)N[C@@H](CO)C(=O)N[C@@H](Cc2csc3ccccc23)C(=O)N1C (stereo partly drawn) [Example 10023] ({CH2CO}-Y[NMeA]NP[hSer]S[Hyp]WS[Bta][NMeNle][NMeNle]R[ξC]G-NH2; thioether N-14)
1 to 9.9	CCCC[C@H]1C(=O)N2CCC[C@@H]2C(=O)N[C@@H](CC(=O)O)C(=O)N[C@@H](C(C)C)C(=O)N(C)[C@@H](Cc2ccccc2)C(=O)N[C@@H](CCCN)C(=O)N2CCC[C@@H]2C(=O)N[C@@H](Cc2c[nH]c3ccccc23)C(=O)N[C@@H](Cc2ccc(O)cc2)C(=O)N[C@@H](CC(C)C)C(=O)N[C@H](C(=O)NCC(N)=O)CSCC(=O)N[C@@H](Cc2ccccc2)C(=O)N(C)[C@@H](Cc2ccccc2)C(=O)N1C [Example 10103] ({CH2CO}-F[NMeF][NMeNle][dP]DV[NMeF][Orn][dP]WYLCG-NH2; thioether N-13)
1 to 9.9	CCCC[C@H]1C(=O)N2C[C@H](O)C[C@@H]2C(=O)N[C@@H](CC(=O)O)C(=O)N[C@@H](C(C)C)C(=O)N(C)[C@@H](Cc2ccccc2)C(=O)N[C@@H](CCN)C(=O)N2C[C@H](O)C[C@@H]2C(=O)N[C@@H](Cc2c[nH]c3ccccc23)C(=O)N[C@@H](Cc2ccc(O)cc2)C(=O)N[C@@H](CCCN)C(=O)N[C@H](C(=O)NCC(N)=O)CSCC(=O)N[C@@H](Cc2ccc(F)c(F)c2)C(=O)N(C)[C@@H](Cc2ccccc2)C(=O)N1C [Example 9310] ({CH2CO}-[Phe(3,4-F2)][NMeF][NMeNle][d(cisHyp)]DV[NMeF][Dab][d(cisHyp)]WY[Orn]CG-NH2; thioether N-13)
1 to 9.9	CCCC[C@H]1C(=O)N(C)[C@@H](CCCC)C(=O)N[C@@H](CCCNC(=N)N)C(=O)N[C@H](C(=O)NCC(N)=O)CSCC(=O)N[C@@H](Cc2ccc(O)cc2)C(=O)N(C)[C@@H](C)C(=O)N[C@@H](CO)C(=O)N2CCC[C@H]2C(=O)N[C@@H](Cc2cnc[nH]2)C(=O)N[C@@H](CCC(N)=O)C(=O)N2C[C@H](O)C[C@H]2C(=O)N[C@@H](Cc2c[nH]c3ccccc23)C(=O)N[C@@H](CO)C(=O)N[C@@H](Cc2c[nH]c3ccccc23)C(=O)N1C [Example 5178] ({CH2CO}-Y[NMeA]SPHQ[Hyp]WSW[NMeNle][NMeNle]RCG-NH2; thioether N-14)
10 to 99.9	CCCC[C@H]1C(=O)N2C[C@H](O)C[C@@H]2C(=O)N[C@@H](CC(=O)O)C(=O)N[C@@H](C(C)C)C(=O)N(C)[C@@H](Cc2ccccc2)C(=O)N[C@@H](Cc2ccc(O)cc2)C(=O)N2C[C@H](O)C[C@@H]2C(=O)N[C@@H](Cc2c[nH]c3ccccc23)C(=O)N[C@@H](Cc2ccc(O)cc2)C(=O)N[C@@H](CCC(N)=O)C(=O)N[C@H](C(=O)NCC(N)=O)CSCC(=O)N[C@@H](Cc2cc(F)c(F)c(F)c2)C(=O)N(C)[C@@H](Cc2ccccc2)C(=O)N1C [Example 9328] ({CH2CO}-[Phe(3,4,5-F3)][NMeF][NMeNle][d(cisHyp)]DV[NMeF]Y[d(cisHyp)]WYQCG-NH2; thioether N-13)

Same assay, conditions: PD-L1-His 10 nM, PD-1-Ig 20 nM; read-out: HTRF Human PD-L1/PD-1 Binding Assay IC50

IC50 [nM]	Compound
10.6	CCCC[C@H]1C(=O)N2CCC[C@@H]2C(=O)N[C@@H](CC(=O)O)C(=O)N[C@@H](C(C)C)C(=O)N(C)[C@@H](Cc2ccccc2)C(=O)N[C@@H](CCC(=O)O)C(=O)N2CCOC[C@@H]2C(=O)N[C@@H](Cc2c[nH]c3ccccc23)C(=O)N[C@@H](Cc2ccc(O)cc2)C(=O)N[C@@H](CCN)C(=O)N[C@H](C(=O)NCC(N)=O)CSCC(=O)N[C@@H](Cc2cc(F)c(F)c(F)c2)C(=O)N(C)[C@@H](Cc2ccc(O)cc2)C(=O)N1C [Example 10616] ({CH2CO}-[Phe(3,4,5-F3)][NMeY][NMeNle][dP]DV[NMeF]E[X1]WY[Dab]CG-NH2; thioether N-13)
